COc1cc(NS(=O)(=O)c2ccc(N)cc2)ncn1
Details	solubility (mole fraction)
in acetone, 299.05 K	0.00789
in acetone, 303.3 K	0.00849
in acetone, 308.2 K	0.00935
in acetone, 313.15 K	0.0105
in acetone, 318.05 K	0.0112
in acetone, 323.05 K	0.0124
in ethanol, 297.95 K	0.000496
in ethanol, 310.95 K	0.000859
in ethanol, 317.65 K	0.00109
in ethanol, 327.95 K	0.00161
in ethanol, 337.85 K	0.00243
in ethanol, 347.15 K	0.00356
in ethyl acetate, 300.65 K	0.00114
in ethyl acetate, 308.2 K	0.00131
in ethyl acetate, 316.05 K	0.00146
in ethyl acetate, 324 K	0.00169
in ethyl acetate, 331.95 K	0.00184
in ethyl acetate, 339.8 K	0.00205
in methanol, 294.55 K	0.000735
in methanol, 303.15 K	0.000951
in methanol, 309.95 K	0.00117
in methanol, 317.75 K	0.00164
in methanol, 325.85 K	0.00221
in methanol, 332.65 K	0.00284
in n-butanol, 305.2 K	0.000117
in n-butanol, 318.05 K	0.000288
in n-butanol, 327.85 K	0.000607
in n-butanol, 339.85 K	0.00121
in n-butanol, 352.55 K	0.0029
in n-butanol, 362.15 K	0.00479
in n-propanol, 300.25 K	0.000233
in n-propanol, 308.15 K	0.00037
in n-propanol, 318.05 K	0.000598
in n-propanol, 327.95 K	0.00102
in n-propanol, 342.75 K	0.00198
in n-propanol, 352.45 K	0.00353
in n-propanol, 361.85 K	0.00556

Reference: BigSolDB 2.1
